Measurements reported in patent US5942494A, “Stimulation of gene expression and synthesis of heat shock protein 72/73 (HSP 70)” (The Trustees of Columbia University in the City of New York, priority 1996, dated 1999).

Tests used:
Hsp70 = Hsp70 levels by denaturing immunoprecipitation of [3H]-leucine radiolabeled HepG2 cells; format: cell-based, human; conditions: HepG2, 4 hours; MG132 10 μM or 30 μM; lactacystin 10 μM; 30 min radiolabeling
Experimental: The HepG2 cell culture conditions were maintained as previously described (Dixon, et al., 1991). The cells were seeded into collagen-pre-coated dishes or six-well tissue culture plates and grown in complete medium containing minimum essential medium (MEM) with 0.1 mM nonessential amino acids, 1.0 mM sodium pyruvate, penicillin/streptomycin, and 10% fetal bovine serum. Cells were fed fresh complete medium every 3 days and maintained in a 5% CO2 incubator. All experiments were performed by using exponentially growing cells at 90-95% confluency. For heat shock treatment, the dishes were sealed with Parafilm and immersed in a water bath at 42° C. for indicated durations of time. Cells were incubated with ALLN alone at indicated concentrations or combined with other chemicals at 37° C. Cells were also incubated with different protease inhibitors alone at indicated concentrations or combined with other chemicals at 37° C.
(§1) HepG2 cells were preincubated for 4 hours in serum-free MEM and then radiolabeled with ^3 H-Leucine (150 μCi/ml) in a serum-free, leucine-free medium. Preincubation and labeling media each contained either 1.5% bovine serum albumin (BSA) alone, or BSA plus ALLN (40 μg/ml except as otherwise indicated), or BSA plus other protease inhibitors at concentrations indicated in the figure legends. At the indicated times, cells were removed from the 37° C. incubator and placed on ice, washed with cold phosphate-buffer saline (PBS) twice and lysed with lysis buffer containing 1% Triton X-100 (TX100), 1% deoxycholic acid (DOC) and 0.1% SDS in PBS containing proteinase inhibitors: 2 mM phenylmethylsulfonyl fluoride (PMSF); 2 μg/ml ALLN; 2 μg/ml leupeptin; and 2 μg/ml aprotinin. After a 30 min. incubation with lysis buffer at 4° C., the lysates were centrifuged at 14,000 g in a microcentrifuge for 5 min., and the supernatants were adjusted to 1% SDS concentration and boiled for 5 min. to denature the proteins. 1% TX100 was then added to dilute the lysates to a final concentration of 0.1% SDS. Cell lysates containing equal amounts of trichloroacetic acid (TCA)-insoluble radioactivity were used for immunoprecipitations by incubating with individual monoclonal antibody (1 μg/ml) for 2.5 hours at 4° C. Protein-A Sepharose 4B was added afterwards and the lysates incubated for another 1.5 hours at 4° C. to collect the immunocomplexes. After washing four times with 1×NET buffer (containing 0.5% TX100, 0.1% SDS), the immunocomplexes were mixed with sample buffer and boiled for 5 min. Following centrifugation, the supernatants were aliquoted for scintillation counting and for 3-15% gradient polyacrymide gel electrophoresis (SDS-PAGE) . The gels were later subjected to fluorography. All values are presented as the mean ± S.D. from three individual experiments except as otherwise indicated.
Denaturing immunoprecipitation was chosen because Hsp70 is a major cytosolic chaperone protein and it is co-immunoprecipitated with a number of other proteins under non-denaturingconditions (Beckmann, et al., 1990; Zhou, et al., 1995).

HepG2 cells = assay: Total incorporation of radiolabel (TCA cpm) as indicator of cell toxicity, HepG2; format: cell-based, human; conditions: HepG2, 4 hours; MG132 10 or 30 μM; lactacystin 10 μM
Experimental: as §1

[1] = test system: cysteine protease, serine protease, trypsin or chymotrypsin; conditions: even upon extended exposure, Ward, et al., 1995, Fenteany; cited from earlier work

CC(=O)N[C@@H](CSC(=O)[C@]1([C@@H](O)C(C)C)NC(=O)[C@H](C)[C@@H]1O)C(=O)O [lactacystin]
Induction of Hsp70 levels by proteasome inhibitors (Hsp70): induced Hsp70 levels dramatically | Toxicity to the cells (TCA-precipitable radioactivities) (HepG2 cells): without obvious toxicity | Effect on cysteine protease, serine protease, trypsin or chymotrypsin [1]: no detectable effect
